Structures can show the parent of a compound that is named as a salt.

This is an account of results in patent US11324852B2, “Coated silk films, methods for the production thereof and uses thereof” (AMSILK GMBH, priority 2014, dated 2022).

Format in all cases: physicochemical
One data set has as its system C16 films. The data set can be described thus: Remote loading of drugs and model protein lysozyme into C16 films. The following applies: 30 min, room temperature. The method, then:
Loading efficiency and loading were determinate for lysozyme dissolved in high purified water (HPW). For the remote loading of lysozyme, the loading solution was prepared dissolving 1% w/v lysozyme in high purified water. Three different films were weighted, following by incubation in a 6-well plate with 5 ml of the loading solution at room temperature, at 2 rpm. After 30 min, films were removed and the loading solution was diluted 1:20 and analysed photometrically at 280 nm recording its spectra using a spectrophotometer (Agilent Technologies 8453, Oberhaching, Germany). A calibration curve was prepared using the original lysozyme solution. The same method was performed using as incubation medium of 0.5% and 0.25% of lysozyme.
A) Low molecular weight drugs (tetracain hydrochloride, ethacridine monohydrate lactate, nipagin and phenol red) were dissolved at a concentration of 0.5 mg/ml in highly purified water (HPW), Tris 5 mM pH 7, and formate buffer 5 mM, pH 3, respectively. After dissolving the drugs, all solutions were filtered through a 0.45 μm cellulose acetate filter.
For the remote loading process, the previously cast C16 films were cut into pieces, weighed and placed into 24-well plates. At least four C16 film samples were incubated with 1 ml of each drug solutions for 30 min at gently agitation of 2 rpm at room temperature. After removing the C16 films, the quantities of the loaded drugs were calculated indirectly by measuring the remaining loading solutions photometrically. Finally, the loading and the loading-efficiency for each experimental condition were calculated (see Table 1).
For the remote loading of the model protein lysozyme, the loading solution was prepared by dissolving 1% w/v lysozyme in HPW. As before, three different C16 films were weighed. Afterwards, C16 films were incubated in a 6-well plate with 5 ml of the loading solution at gently agitation of 2 rpm at room temperature. After 30 min, C16 films were removed and the loading solution was analysed photometrically at 280 nm. Spectra were recorded using a spectrophotometer. At physiological pH, spider silk films are negatively charged.
B) For the remote loading of Lysozyme, the loading solution was prepared dissolving 1% w/v lysozyme in high purified water (HPW). Three different C16 films were weighted, followed by incubation in a 6-well plate with 5 ml of the loading solution at gently agitation of 2 rpm at room temperature. After 30 min, C16 films were removed and the loading solution was diluted 1:20 and analyzed photometrically at 280 nm. In particular, a spectra of this solution was subsequently recorded using a spectrophotometer (Agilent Technologies 8453, Oberhaching, Germany). A calibration curve was prepared using the original lysozyme solution. The same method was performed using an incubation medium with 0.5% and 0.25% of Lysozyme.

Data set [1] can be described thus: Cumulative release of paracetamol, FITC-dextran and FITC-BSA from directly loaded C16 films. The following applies: for Release from C16 films (in words): 0.01 M PBS buffer pH 7.4, 37° C. The procedure:
Paracetamol: Before casting the C16 films, paracetamol was added and dissolved directly in 2.5% C16 protein solution. The resulting films contained each 2.5 mg of paracetamol. Three film samples containing paracetamol were incubated in 0.01 M PBS buffer pH 7.4 at 37° C. At predetermined time points, the buffer was removed and replaced with fresh medium. The release buffer was analyzed by NanoDrop 2000 (peqlab, Erlanger, Germany). […] Each film contained 1.3 mg of FITC-BSA or FD. Films containing the model drugs (n=3) were incubated in 0.01 M PBS buffer pH 7.4 at 37° C. At predetermined time points the buffer was removed and replaced with fresh medium. The release buffer was analyzed using the fluorescence spectrophotometer Cary Eclipse Varian (Agilent technology, Böblingen, Germany) applying an excitation wavelength of 490 nm and an emission of 520 nm. The drug which was not released was quantified by dissolving the film matrix in a 6 M GdmSCN solution. This solution was subsequently analyzed using a fluorescence spectrophotometer.
A) Spray-dried C16 proteins were dissolved in 6 M guanidinium thiocyanate and subsequently dialyzed against 5 mM Tris/HCl buffer, pH 8 at 4° C. The pH was measured using a pH meter. The protein solution was centrifuged at 10000 rpm for 15 min and filtered through a 0.45 μm cellulose acetate filter. The protein concentration was determined photometrically. The protein solution was finally diluted with Tris buffer to 2.5% w/v. Before casting the films, paracetamol was added and dissolved directly in the protein solution. Films (2.5×3 cm) were cast on the plastic foil A5 22/5B from mtv-messtechnik (Koeln, Germany) and dried in a laminar flow cabinet at room temperature overnight at 45% relative humidity. The resulting films contained 2.5 mg of drug. Three film samples containing paracetamol were incubated in 0.01 M PBS buffer, pH 7.4 at 37° C. At predetermined time points, the buffer was removed and replaced with fresh medium. The release buffer was analysed using a UV-Vis spectrophotometer.
Films were cast as described above. Every film contained 25 mg of C16 and 1.3 mg of FITC-BSA or FD, respectively. Films containing the substances were incubated in 0.01 M PBS buffer, pH 7.4 at 37° C. At predetermined time points, the buffer was removed and replaced with fresh medium. The release buffer was analysed using a fluorescence spectrophotometer applying an excitation wavelength of 490 nm and an emission of 520 nm. The substance which was not released was quantified by dissolving the film matrix in a 6M GdmSCN solution. This solution was subsequently analysed using a fluorescence spectrophotometer. The sum of the non-released substance and the released amount of substance was calculated as 100%. […] After direct loading with FITC-BSA, C16 films released almost 65% of the model protein within one week. […] The cumulative release of paracetamol, FITC-dextran 21 kDa (FD) and FITC-BSA from C16 films casted from an aqueous solution is shown in FIG. 6.

A short description of data set [2]: Isoelectric point (pI) of spider silk polypeptides.
The mark [3] stands for this setting: HPW (highly purified water), LMW drugs 0.5 mg/ml, lysozyme 1% w/v.
Where [4] appears, read: pH 3 (formate buffer 5 mM), drug 0.5 mg/ml.
[5] abbreviates: pH 7 (Tris 5 mM), drug 0.5 mg/ml.

Take `CCCCNc1ccc(C(=O)OCCN(C)C)cc1` [Tetracaine HCl, tetracain hydrochloride]: the entries for the “Loading (L)” value in the data set with C16 films (setting [3]), with C16 films (setting [4]) and with C16 films (setting [5]) were 3.8 ± 1.9%, 0.0 ± 0.0% and 2.5 ± 07%, respectively. For the same molecule, the results for the “Loading efficiency (LE)” value in the data set on C16 films (setting [3]), in the data set with C16 films (setting [4]) and with C16 films (setting [5]) were 35.1 ± 8.3%, 0.0 ± 0.0% and 24.3 ± 7.7%, respectively.
Take “FITC-BSA: FITC-BSA (MW 66.5 kDa), model drug / model protein”: the “Release after the burst (in words)” value in data set [1] (after day 1, 0.01 M PBS pH 7.4, 37° C.) is on record as “constant amount per day”. Besides, in data set [1] (direct loading), the “Release from C16 films (in words)” value is given as “slower”. Besides, the “Burst release from C16 films” value in data set [1] (on day 1, direct loading, 0.01 M PBS pH 7.4, 37° C.) is recorded as “approx. 30%”. The “Cumulative release from C16 films” value in data set [1] (within one week, direct loading, 0.01 M PBS pH 7.4, 37° C.) was around 65%.
For the molecule “Lysozyme: model protein, positively charged at physiological pH”, in the data set on C16 films (setting [3]), the “Loading (L)” value is 39.8 ± 1.8% and the “Loading efficiency (LE)” value came to 22.8 ± 0.7%.
As to `COC(=O)c1ccc(O)cc1` [Nipagin, nipagin], the “Loading (L)” value with C16 films (setting [3]) worked out at 0.8 ± 0.3%; with C16 films (setting [4]), 0.5 ± 0.2%; in the data set with C16 films (setting [5]) it was 0.0 ± 0.0%. The figures for the “Loading efficiency (LE)” value in the data set on C16 films (setting [3]), with C16 films (setting [4]) and in the data set with C16 films (setting [5]) were 9.6 ± 4.3%, 5.3 ± 2.3% and 0.0 ± 0.0%, respectively.
In the case of `CC(O)C(=O)O.CCOc1ccc2nc3cc(N)ccc3c(N)c2c1.O` [Ethacridine lact., ethacridine monohydrate lactate], the “Loading (L)” value in the data set on C16 films (setting [3]) is on record as 3.3 ± 0.3%; with C16 films (setting [4]) it was 2.4 ± 0.5%; with C16 films (setting [5]), 3.5 ± 1.0%. For the same molecule, the figures for the “Loading efficiency (LE)” value in the data set with C16 films (setting [3]), with C16 films (setting [4]) and in the data set on C16 films (setting [5]) were 54.2 ± 3.2%, 16.5 ± 5.4% and 45.8 ± 2.7%, respectively.
Turning to `CC(=O)Nc1ccc(O)cc1` [paracetamol], in data set [1] (direct loading), the “Release from C16 films (in words)” value is reported as “completely release”.

B1: C16: silk polypeptide which comprises 16 repeats of the sequence of module C (SEQ ID NO: 21) (protein)
chain: GSSAAAAAAAASGPGGYGPENQGPSGPGGYGPGGPGSSAAAAAAAASGPGGYGPENQGPSGPGGYGPGGPGSSAAAAAAAASGPGGYGPENQGPSGPGGYGPGGPGSSAAAAAAAASGPGGYGPENQGPSGPGGYGPGGPGSSAAAAAAAASGPGGYGPENQGPSGPGGYGPGGPGSSAAAAAAAASGPGGYGPENQGPSGPGGYGPGGPGSSAAAAAAAASGPGGYGPENQGPSGPGGYGPGGPGSSAAAAAAAASGPGGYGPENQGPSGPGGYGPGGPGSSAAAAAAAASGPGGYGPENQGPSGPGGYGPGGPGSSAAAAAAAASGPGGYGPENQGPSGPGGYGPGGPGSSAAAAAAAASGPGGYGPENQGPSGPGGYGPGGPGSSAAAAAAAASGPGGYGPENQGPSGPGGYGPGGPGSSAAAAAAAASGPGGYGPENQGPSGPGGYGPGGPGSSAAAAAAAASGPGGYGPENQGPSGPGGYGPGGPGSSAAAAAAAASGPGGYGPENQGPSGPGGYGPGGPGSSAAAAAAAASGPGGYGPENQGPSGPGGYGPGGP
Take B1: the pI in data set [2] stood at 3.48.
